Results published in patent US20220296555A1, “ACYLATED ACTIVE AGENTS AND METHODS OF THEIR USE FOR THE TREATMENT OF METABOLIC DISORDERS AND NONALCOHOLIC FATTY LIVER DISEASE” (Flagship Pioneering Innovations V, Inc., priority 2019, published 2022).

How the values were obtained:
[1] = test system: differentiated mouse 3T3-L1 cells; experiment: Mouse adipocyte lipolysis assay (Lipolysis Assay Kit, ZenBio); type: cell-based; conditions: 24 hours post-treatment, 3T3-L1 adipocytes
Method: Mouse 3T3-L1 cells were obtained from ATCC and cultured in Dulbecco's Modified Eagle's medium (DMEM) containing 10% newborn calf serum (NCS) and penicillin/streptomycin(P/S) at 37° C. in an incubator with 5% CO2. Once the cells became confluent, they were seeded into a tissue culture treated 96 well plate. Then, differentiation was initiated by using DMEM containing 10% fetal bovine serum, P/S, IBMX, dexamethasone, and insulin. After 14 days of differentiation, cells were treated with compounds of interest. After 24 hours post-treatment, the cell viability was assessed using CellTiter-Glo Luminescent Cell Viability Assay from Promega, and lipolysis was determined using Lipolysis Assay Kit from ZenBio. […] Table 1 lists the compounds that reduced the release of free fatty acids and glycerol (+, ++, or +++). The lipolytic rate of white adipose tissue is associated with metabolic dysfunction including insulin resistance and liver steatosis. Compounds that lower lipolysis of adipocytes may improve metabolic function including improving insulin sensitivity and reducing liver steatosis, thus improving outcomes in subjects with diabetes mellitus (e.g., prediabetes or type II diabetes), obesity, and hyperlipidemia.

mouse myocyte = experiment: Mouse myocyte lipolysis assay; type: cell-based; conditions: differentiated myocytes
Method: Cells were obtained from ATCC and cultured in Dulbecco's Modified Eagle's medium (DMEM) containing 20% fetal bovine serum and 1% penicillin/streptomycin at 37° C. in an incubator with 5% CO2. Once the cells became confluent, they were seeded into a tissue culture treated 96 well plate. The next day, the medium containing DMEM with 2% equine serum was used to start differentiation. Table 2 lists the tested compounds including those that reduced the release of glycerol (+, ++, or +++). The lipolytic rate of muscle triglycerides is associated with metabolic dysfunction including insulin resistance and liver steatosis. Compounds that lower lipolysis of adipocytes may improve metabolic function including improving insulin sensitivity and reducing liver steatosis, thus improving outcomes in patients with diabetes mellitus (e.g., prediabetes or type II diabetes) obesity, and hyperlipidemia.

[2] = Assay 2. Stability in Simulated Intestinal Fluid (SIF); type: in vitro ADME; conditions: SIF pH 6.7 with pancreatin, 1 μM, 37° C.
Method: Assay 2. Stability of conjugates in Simulated Intestinal Fluid (SIF). This assay was used to assess the stability of an acylated cinnamic acid in a small intestine.
Phosphate buffer was prepared by dissolving 0.42 g of sodium hydroxide pellets and 3.95 g of monobasic sodium phosphate monohydrate and 6.19 g of sodium chloride in ultrapure water (MilliQ®, Millipore Sigma, Darmstadt, Germany). The pH was adjusted to 6.7 using aq. HCl and aq. NaOH, as necessary, and the solution was diluted with ultrapure water to produce 1 L of the pH 6.7 buffer.
112 mg FaSSIF powder (Biorelevant™, London, UK) was dissolved in 50 mL of the pH 6.7 buffer. 2 to 3 mL of the resulting solution were then added to 500 mg pancreatin (Millipore Sigma, Darmstadt, Germany). The resulting mixture was agitated by finger tapping the vessel containing the mixture until milky suspension formed. At this time, the remainder of the 50 mL FaSSiF/pH 6.7 buffer solution was added. The resulting suspension was flipped upside down 10 times to produce SIF, which was used fresh.
A test compound was dissolved in DMSO stock to 1 mM. An aliquot of the DMSO stock solution was removed and diluted in the SIF media in 15 mL falcon tubes to produce a mixture with a tested compound concentration of 1 μM. […] The resulting samples were analyzed by LC/MS to determine degradation rates

[3] = Assay 1. Stability in Simulated Gastric Fluid (SGF); type: in vitro ADME; conditions: SGF pH 1.6 with pepsin, 1 μM, 37° C.
Method: Assay 1. Stability of conjugates in Simulated Gastric Fluid (SGF). This assay was used to assess the stability of an acylated cinnamic acid in a stomach.
Medium was prepared by dissolving 2 g of sodium chloride in 0.6 L in ultrapure water (MilliQ®, Millipore Sigma, Darmstadt, Germany). The pH was adjusted to 1.6 with 1N hydrochloric acid, and the volume was then adjusted to 1 L with purified water.
60 mg FaSSIF powder (Biorelevant™, London, UK) were dissolved in 500 mL buffer (above). Pepsin was added (0.1 mg/mL) (Millipore Sigma, Darmstadt, Germany), and the solution was stirred. The resulting SGF media were used fresh for each experiment.
A test compound was dissolved in DMSO stock to 1 mM. An aliquot of the DMSO stock solution was removed and diluted in the SGF Media in 15 mL falcon tubes to generate a total compound concentration of 1 μM. A 1 mL aliquot was immediately removed and diluted once with 1 volume of acetonitrile for T0 timepoint. The mixture was sealed and mixed at 37° C. in an incubator. Aliquots (1 mL) were removed at regular intervals and immediately quenched by the addition of 1 volume of acetonitrile. The resulting samples were analyzed by LC/MS to determine degradation rates in SGF.

[4] = Assay 3. In vitro Colonic Material Stability Assay; type: in vitro ADME; conditions: colonic material slurry, anaerobic, 1 or 10 μM
Method: Assay 3. In vitro Colonic Material Stability Assay. This assay was used to assess the stability of an acylated cinnamic acid in a large intestine. All experiments were performed in an anaerobic chamber containing 90% nitrogen, 5% hydrogen and 5% carbon dioxide. Colonic material was resuspended as a slurry (15% w/v final concentration) in pre-reduced, anaerobically sterilized dilution blanks (Anaerobe Systems AS-908). The colonic material was then inoculated into 96 well plates containing YCFAC media (Anaerobe Systems AS-680) or other suitable media (6.7 μL slurry into 1 mL total media). A test compound was added to an individual well to reach a final analyte concentration of 1 or 10 μM, and the material was mixed by pipetting. Sample was removed after set timepoints (0, 120, 240, 480, 1440, 2880 minutes after initiation of the assay), quenched with acetonitrile containing internal standard, and analyzed by LC/MS.

C57BL/6 mice = experiment: In vivo evaluation in mice fed a high-fat diet (84-day study); parameters: species or system mouse
Method: Animals were allowed free access to food and drinking water for the entire study. Animals were weighed on a regular basis, and food and drinking water consumption monitored. Plasma and stool samples were collected at the beginning of the study and 42 days into the study. Additional blood was drawn from fasted mice 58 days into the study. Insulin tolerance tests were performed 72 or 73 days into the study. Following an approximate 4 h fast, 0.5 Units/kg insulin was administered intraperitoneally. Blood was collected pre-insulin challenge (t=0) and at t=15, 30, 60, 90, and 120 min following insulin challenge. Oral glucose tolerance tests were performed 79 or 80 days into the study. Following an approximate 4 h fast, 2 g/kg glucose was administered by oral gavage. Blood was collected pre-insulin challenge (t=0) and at t=15, 30, 60, 90, and 120 min following glucose challenge. At the end of the study, body weight, food consumption, blood glucose, serum ALT levels, serum AST levels, serum cholesterol (total cholesterol. HDL, and LDL levels), serum triglycerides levels, liver triglyceride levels, liver cholesterol levels, liver weight, subcutaneous fat pad weight, and epididymal fat pad weight were measured in all mice.

CC(=O)O [Acetic acid]
Lipolysis Free Fatty Acids % DMSO ([1]; 1 mM): ++ (50 >≤ 70%: ++) | Lipolysis Glycerol % change ([1]; 1 mM): + (70% >≤90%: +) | Lipolysis Free Fatty Acids % DMSO ([1]; 3 mM): ++ (50 >≤ 70%: ++) | Lipolysis Glycerol % change ([1]; 3 mM): + (70% >≤90%: +) | Free glycerol % DMSO (mouse myocyte; 1 mM): = (90% >< 100%: =) | Free glycerol % DMSO (mouse myocyte; 3 mM): = (90% >< 100%: =)

CCCC(=O)O [Butyric acid]
Lipolysis Free Fatty Acids % DMSO ([1]; 3 mM): ++ (50 >≤ 70%: ++) | Lipolysis Glycerol % change ([1]; 3 mM): ++ (50 >≤ 70%: ++) | Free glycerol % DMSO (mouse myocyte; 3 mM): +++ (50%<: +++)

O=C(O)/C=C/c1ccc(O)c(O)c1 [Caffeic acid]
Lipolysis Free Fatty Acids % DMSO ([1]; 100 μM): +++ (50%≤: +++) | Lipolysis Glycerol % change ([1]; 100 μM): +++ (50%≤: +++) | Free glycerol % DMSO (mouse myocyte; 100 μM): +++ (50%<: +++)

CCC(=O)O [Propionic acid]
Lipolysis Free Fatty Acids % DMSO ([1]; 3 mM): +++ (50%≤: +++) | Lipolysis Glycerol % change ([1]; 3 mM): ++ (50 >≤ 70%: ++) | Free glycerol % DMSO (mouse myocyte; 3 mM): ++ (50 >< 70%: ++)

CC(=O)Oc1ccc(/C=C/C(=O)O)cc1OC(C)=O [compound 3, diacetyl caffeic acid]
Assay 2 (SIF) (% @ Remaining 4 hours) [2]: A (<25% of the tested compound remaining) | Assay 1 (SGF) (% Remaining @ 1 hour) [3]: C (>75% of the tested compound remaining) | Assay 3 (% Remaining at 24 h) [4]: A (<25% of the tested compound remaining)

CC(=O)O[C@@H]1OC[C@@H](OC(C)=O)[C@H](OC(C)=O)[C@H]1OC(C)=O [compound 4]
metabolic markers (e.g., glucose tolerance, insulin tolerance, cholesterol levels) (C57BL/6 mice; mice fed high-fat diet + test article): improve metabolic markers | weight loss (C57BL/6 mice; mice fed high-fat diet, over the study): induce weight loss
